We go through six compounds from patent publication US7015306B2 (BioSynthema, Inc., priority 1999, dated 2006).

Where a SMILES comes first, the peptide text is derived from it. [ ]: non-standard residue; d: D form. The star is where a group is joined. DTPA = O=C(O)CN(CCN(CC(=O)O)CC(=O)O)CCN(CC(=O)O)CC(=O)*; Phe(4-guanidino) = N=C(N)Nc1ccc(C[C@H](N)C(=O)O)cc1; X1 = CC(C)C[C@@H](CN[C@@H](CC(C)C)C(N)=O)N*; Tle = CC(C)(C)[C@H](N)C(=O)O; Aba(Apy) = not defined here

A short description of data set [1]: In vitro urine stability assay (HPLC) of In-111 labeled peptide. It counts as in vitro ADME. The settings on record: for HPLC Evaluation of Urine Stability at 37EC, Urine, t = 0: rat urine; for remaining at 4 h: rat, t = 4 h. Here is the method: (§1) All reagents were purchased from Sigma unless otherwise noted. The peptide and ^111InCl3 in 0.05 N HCl were incubated in a sodium acetate/ascorbic acid buffer for 30 minutes at room temperature. The reaction was diluted with 5% ethanol/95% PBS before using in subsequent in vitro assays.
(§2) Human serum was purchased from Sigma (H 1388). The labeled peptide was incubated in either human serum or rat urine at 37EC for the specified amount of time. An aliquot was filtered through a 0.45 μm syringe filter prior to HPLC injection.

The nature of data set [2]: In vitro serum stability assay (HPLC) of In-111 labeled peptide. It counts as in vitro ADME, human. The settings on record: for remaining at 4 h: t = 4 h. Here is the method:
as §1, §2

The next data set addresses neurotensin receptors (Homo sapiens, UniProt P30989). The experiment in a line: Competitive binding assay on frozen tissue sections of receptor-positive human tumors vs radioiodinated native neurotensin. The note with it: Table 3. From the text: Frozen tissue sections from receptor-positive human tumors were used in a competitive binding assay.
The mark [3] stands for this setting: 37EC, read-out: HPLC Evaluation of Urine Stability at 37EC, Urine, t = 4 h.
Setting [4] is: human serum, 37EC, read-out: HPLC Evaluation of Serum Stability at 37EC, Serum, t = 4 h.
The mark [5] stands for this setting: Table 4, rat urine, read-out: Urine Stability, Urine (t = 4 h).
Where [6] appears, read: Table 4, human serum, read-out: Serum Stability, Serum (t = 4 h).

Sequence of neurotensin receptors (P30989 whole entry): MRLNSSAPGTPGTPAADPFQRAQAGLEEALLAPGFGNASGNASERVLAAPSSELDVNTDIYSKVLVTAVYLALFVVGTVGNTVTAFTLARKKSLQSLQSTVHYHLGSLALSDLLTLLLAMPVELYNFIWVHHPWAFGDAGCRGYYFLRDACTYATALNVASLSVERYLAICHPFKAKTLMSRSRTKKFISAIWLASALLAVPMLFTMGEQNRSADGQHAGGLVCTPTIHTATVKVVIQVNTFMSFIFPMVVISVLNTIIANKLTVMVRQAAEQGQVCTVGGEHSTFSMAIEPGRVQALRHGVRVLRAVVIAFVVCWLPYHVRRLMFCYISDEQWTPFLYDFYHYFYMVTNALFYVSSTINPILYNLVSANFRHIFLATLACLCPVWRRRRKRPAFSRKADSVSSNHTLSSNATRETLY

As to `CC[C@H](C)[C@H](NC(=O)[C@H](Cc1ccc(O)cc1)NC(=O)[C@@H]1CCCN1C(=O)[C@H](Cc1ccc(NC(=N)N)cc1)NC(=O)[C@H](Cc1ccc(NC(=N)N)cc1)NC(=O)[C@@H]1CCCN1C(=O)[C@@H](CCCCN)NC(=O)CN(CCN(CCN(CC(=O)O)CC(=O)O)CC(=O)O)CC(=O)O)C(=O)N[C@@H](CC(C)C)C(=O)O` [In-111-DTPA-DK-P-F(Gu)-F(Gu)-P-Y-I-L, metal not drawn] ({DTPA}-[dK]P[Phe(4-guanidino)][Phe(4-guanidino)]PYIL-OH; C-terminus assumed), in data set [1], the “HPLC Evaluation of Urine Stability at 37EC, Urine, t = 0” value (from here on “HPLC Evaluation of Urine Stability”) turned out to be 92.3%. In addition, the remaining at 4 h in data set [1] (setting [3]) was determined as 2.3%; in data set [2] (setting [4]), 25.2%. Further, the “HPLC Evaluation of Serum Stability at 37EC, Serum, t = 0” value (shortened to “HPLC Evaluation of Serum Stability”) in data set [2] (human serum) came out at 99.0%.

Consider `CC[C@H](C)[C@H](NC(=O)[C@H](Cc1ccc(O)cc1)NC(=O)[C@@H]1CCCN1C(=O)[C@H](CCCN=C(N)N)NC(=O)[C@H](Cc1ccc(NC(=N)N)cc1)NC(=O)[C@@H]1CCCN1C(=O)[C@@H](CCCCN)NC(=O)CN(CCN(CCN(CC(=O)O)CC(=O)O)CC(=O)O)CC(=O)O)C(=O)N[C@@H](CC(C)C)C(=O)O` [In-111-DTPA-DK-P-F(Gu)-R-P-Y-I-L, metal not drawn], for which the “HPLC Evaluation of Urine Stability” value in data set [1] came out at 94.1%. Further, the remaining at 4 h in data set [1] (setting [3]) is 1.5%; in data set [2] (setting [4]), 14.1%. Further, the “HPLC Evaluation of Serum Stability” value in data set [2] (human serum) is 98.7%.

For `CC(C)C[C@@H](CN[C@@H](CC(C)C)C(N)=O)NC(=O)[C@H](Cc1ccc(O)cc1)NC(=O)[C@@H]1CCCN1C(=O)[C@H](CCCNC(=N)N)NC(=O)[C@H](Cc1ccc(NC(=N)N)cc1)NC(=O)[C@@H]1CCCN1C(=O)[C@@H](CCCCN)NC(=O)CN(CCN(CCN(CC(=O)O)CC(=O)O)CC(=O)O)CC(=O)O` [In-111-DTPA-DK-P-F(Gu)-R-P-Y-L(Ψ-CH2NH)-L-NH2, metal not drawn] ({DTPA}-[dK]P[Phe(4-guanidino)]RPY-X1), the figures for the remaining at 4 h in data set [1] (setting [5]) and in data set [2] (setting [6]) were 95.7% and 76.2%, respectively.

On to `CC(C)C[C@H](NC(=O)[C@@H](NC(=O)[C@H](Cc1ccc(O)cc1)NC(=O)[C@@H]1CCCN1C(=O)[C@H](CCCN=C(N)N)NC(=O)[C@H](Cc1ccc(NC(=N)N)cc1)NC(=O)[C@@H]1CCCN1C(=O)[C@@H](CCCCN)NC(=O)CN(CCN(CCN(CC(=O)O)CC(=O)O)CC(=O)O)CC(=O)O)C(C)(C)C)C(=O)O` [In-111-DTPA-DK-P-F(Gu)-R-P-Y-tBuG-L, metal not drawn] ({DTPA}-[dK]P[Phe(4-guanidino)]RPY[Tle]L-OH), for which the remaining at 4 h stood at 51.1% in data set [1] (setting [5]) and 72% in data set [2] (setting [6]).

With `CC[C@H](C)[C@H](NC(=O)[C@H](Cc1ccc(O)cc1)NC(=O)[C@@H]1CCCN1C(=O)[C@H](CCCNC(=N)N)NC(=O)[C@H](CCCNC(=N)N)NC(=O)CN(CCN(CCN(CC(=O)O)CC(=O)O)CC(=O)O)CC(=O)O)C(=O)N[C@@H](CC(C)C)C(=O)O` [In-111-DTPA-R-R-P-Y-I-L, metal not drawn, reference compound], in data set [1], the “HPLC Evaluation of Urine Stability” value is recorded as 96.7%. The remaining at 4 h in data set [1] (setting [3]) worked out at 13%; in data set [1] (setting [5]), 14%; in data set [2] (setting [4]) it was 1.6%. In data set [2] (human serum), the “HPLC Evaluation of Serum Stability” value came out at 92%.

For orientation: Kd means the free concentration of one partner at which half of the binding sites on the other are occupied at equilibrium, for simple one-to-one binding. Read a high Kd as a looser complex. For “DTPA-DLys-Pro-Aba(Apy)-Aba(Apy)-Pro-Tyr-Ile-Leu-OH ({DTPA-dK-Pro-Aba(Apy)-Aba(Apy)}-PYIL-OH; reading uncertain)”, the equilibrium dissociation constant (Kd) in the data set with neurotensin receptors is greater than 10 µM.
